Source: US20260167742A1, “METHOD FOR TREATING GASTRIC CANCER BY COMBINING ANTI-HER2 ANTIBODY AND CHEMOTHERAPEUTIC AGENT, AND USE” (SHANGHAI HENLIUS BIOTECH, INC., priority 2023, published 2026)

Legend:
Format in all cases: cell-based, human
[1] = system: gastric cancer cells NCI-N87; experiment: HER2 internalization (endocytosis) assay, pHrodo Green staining, flow cytometry; details: 10 μg/mL
Method: (§1) A HER2 internalization assay was performed using pHrodoiFL Green STP ester amine reactive dye (P35369, Invitrogen). […] After a short wash with a wash buffer to remove unbound antibodies, one group of cells was placed on ice for freezing to stop internalization, and the remaining cells were placed in a 37° C. incubator for further incubation. After the co-incubation with the antibody, the cells were fixed with a fixation buffer (420801, Biolegend) for 30 min. Finally, all stained cells were washed with a staining buffer and analyzed on the CytoFLEX LX flow cytometer (Beckman Coulter, USA).

[2] = system: gastric cancer cells SNU216; experiment: as above; details: 10 μg/mL
Method: as §1

NCI-N87 cells = experiment: Apoptosis assay (Caspase-Glo 3/7); details: 24 h treatment
Method: The apoptosis was assessed by measuring the activity of caspases 3/7 in gastric cancer NCI-N87 cells using the Caspase-Glo®3/7 Assay system. A xenograft human gastric cancer NCI-N87 model and a human gastric cancer PDX model were treated with the antibodies at given doses. All data are presented as mean±SEM. The p values were calculated using Student's t test. ** denotes p<0.01, and * denotes p<0.05.
The apoptosis was assessed by measuring the activity of caspases 3/7 in NCI-N87 cells using the Caspase-Glo®3/7 Assay (G8093, Promega) system. The cells were seeded in a 96-well plate (CLS3799, Corning) at about 1.5×10^4 cells/well and incubated overnight. The original medium was replaced with a drug-containing culture medium of 100 μL, and the cells were treated for 24 h. After an incubation at room temperature for 30 min, 100 μL of Caspase-Glo 3/7 reagent was added. The plate was incubated in the dark for 30 min and detected using Spark (Tecan, Switzerland) after gentle shaking.

## pertuzumab: antibody comprising heavy chain SEQ ID NO: 13 and light chain SEQ ID NO: 14 [reference compound]
[1]
  HER2 internalization (endocytosis): weak endocytosis
[2]
  HER2 internalization (endocytosis): weak endocytosis
NCI-N87 cells
  apoptosis (caspases 3/7 activity): did not significantly induce the apoptosis of NCI-N87 cells
